The record followed here is patent US4413006A, “N-Aryl-N-phenoxy-alkyl-piperazine compounds useful in decreasing intracranial pressure” (Tanabe Seiyaku Co., Ltd., priority 1980, dated 1983).

This test concerns sodium hexobarbital-induced anesthesia. Kind of test: Effect on sodium hexobarbital-induced anesthesia in mice (Experiment 2 (2)). The test is classed as in vivo, male mice. To be noted: Mus musculus, ip, sodium hexobarbital 100 mg/kg i.p., dose prolonging sleeping time to twice control. As for the experimental part:
(Inhibitory effect of test compound on central nervous system in mice)
Inhibitory effect of test compound on central nervous system was examined by the following methods.
A solution or suspension of a test compound in water or an aqueous carboxymethylcellulose solution was administered intraperitoneally to male mice weighing 18 to 20 g (each group consisting of 5 mice). Thirty minutes after intraperitoneal administration of the test compound, sodium hexobarbital (100 mg/kg) was administered intraperitoneally to the mice, and the sleeping time between the loss and recovery of righting reflex was measured. The 50% effective dose (ED50) of the test compound was estimated in terms of dose which is necessary to prolong the sleeping time of the medicated mice twice as long as that of a control group (i.e., non-medicated mice).

The compound `COc1cc(NC(C)=O)ccc1OCCCN1CCN(c2ccccc2F)CC1` [NO. 3 (Table 3)] gave an ED50 of 1.3 mg/kg.

A word on the ED50: it is the dose that gives a 50% effect, or the effect in half of the subjects.
